In article PMC6658782, “The Novel Arylamidine T-2307 Selectively Disrupts Yeast Mitochondrial Function by Inhibiting Respiratory Chain Complexes” (Antimicrobial Agents and Chemotherapy, 2019):
Values after ≈ are worked out from the molar mass of the structure shown.

Tests used:
[1] = system: whole yeast cells; assay: Oxygen consumption of whole yeast cells (oxygen electrode); type: cell-based, Saccharomyces cerevisiae
[2] = biological target: respiratory chain complex II + III (Saccharomyces cerevisiae, UniProt P00163+P07143+P08067); assay: Respiratory chain enzymatic activity, complexes II plus III, S. cerevisiae; type: biochemical
[3] = biological target: respiratory chain complex I (Bos taurus, UniProt P03887+P17694+P42026); assay: MitoCheck complex I activity assay, bovine heart mitochondria; type: biochemical
Description: The enzymatic activities of bovine heart mitochondrial respiratory chain complexes were determined using MitoCheck complex I, complex II/III, and complex IV activity assay kits (Cayman Chemical, Ann Arbor, MI, USA). Bovine heart mitochondria from these kits were used for experiments. The experiments were performed following the manufacturer’s instructions. In the experiments, 2 μM rotenone, 1 mM KCN, and both 1 mM TTFA and 5 μg/ml antimycin A served as positive controls for the inhibition of complex I, complex IV, and complexes II plus III, respectively.
In all experiments, the reaction rate of each enzyme was determined by calculating the slope of the linear portion of the curve. Complex I activity in C. albicans was calculated by subtracting the rotenone-insensitive enzymatic activity (with 10 μM rotenone) from the NADH dehydrogenase activity (without rotenone).
OCRs in isolated mitochondria and intracellular ATP levels were compared between the control and treatment groups using the parametric Dunnett’s multiple-comparison test. P values of <0.05 (comparison of multiple groups) were considered statistically significant. IC50 values were determined from dose-response curves compared with untreated control samples using a four-parameter logistic curve-fitting analysis. Data were analyzed using JMP 13.0 (SAS Institute Japan Ltd., Tokyo, Japan).

[4] = system: Saccharomyces cerevisiae; assay: Intracellular ATP levels in yeast (luminescence assay); type: cell-based
Description: Intracellular ATP levels were measured using a previously described method with the following modifications ([25]). S. cerevisiae was grown overnight in a semisynthetic medium (per liter: 20 g of lactate, 0.5 g of glucose, 3 g of yeast extract, 1 g of KH2PO4, 1 g of NH4Cl, 0.5 g of CaCl2·2H2O, 0.5 g of NaCl, and 0.6 g of MgCl2·6H2O; adjusted to pH 5.5 with NaOH). The cells were harvested during the logarithmic-growth phase by centrifugation (3,000 × g at room temperature for 5 min). They were then washed and resuspended in distilled water. The suspension was diluted in a semisynthetic medium to yield 1 × 10^6 cells/ml. After 5 min of incubation at 30°C, T-2307 and antimycin A were added to the suspension. Further, the cells were incubated for 8 h at 30°C. Subsequently, the cells were collected by centrifugation (4,200 × g at 4°C for 5 min). After washes performed with phosphate-buffered saline (PBS; pH 7.2), the cells were resuspended in PBS and diluted to yield 1 × 10^6 cells/ml. ATP levels were measured using the BacTiter-Glo microbial cell viability assay (Promega, Madison, WI, USA), following the manufacturer’s instructions. Luminescence was measured using a microplate reader POLARstar Optima (BMG Labtech GmbH). To determine the viable cell counts, the cell suspension was diluted with PBS and spread on YPD agar. After a 2-day incubation at 30°C, colonies were counted. The intracellular ATP level is expressed as relative light units (RLU)/CFU.

[5] = system: C. albicans cells; conditions: cited from earlier work
[6] = biological target: respiratory chain complex IV (Saccharomyces cerevisiae, UniProt P00401+P00410+P00420); assay: Respiratory chain enzymatic activity, complex IV, S. cerevisiae; type: biochemical
[7] = system: rat liver mitochondria; set-up: method as in PMID 22948882; conditions: cited from earlier work
[8] = system: C. albicans; conditions: cited from earlier work
[9] = system: isolated yeast mitochondria; assay: Mitochondrial oxygen consumption (MitoXpress probe); type: biochemical, Saccharomyces cerevisiae
Description: S. cerevisiae from frozen stock (−80°C) was inoculated into yeast extract-peptone-glucose (YPD) medium (1% yeast extract, 2% peptone, and 2% glucose) and grown for 24 h at 30°C. The cultured cells were subcultured into yeast extract-peptone-galactose (YPGal) medium (1% yeast extract, 2% peptone, 2% galactose, and 0.1% glucose) and incubated overnight with continuous shaking at 30°C. When the optical density at 600 nm reached approximately 1.0, the cells were collected by centrifugation (3,000 × g at room temperature for 5 min). Intact mitochondria were isolated as per a previously described protocol ([35]) with minor modifications as follows. Yeast cells were converted to spheroplasts by incubation with Zymolyase-20T (Nacalai Tesque, Inc., Kyoto, Japan) (4 mg of Zymolyase-20T/g [wet weight] of cells) and disrupted using a Dounce homogenizer. The crude mitochondrial fraction was isolated by differential centrifugation ([35]). […]. The mitochondrial protein concentration was determined using the DC protein assay (Bio-Rad Laboratories, Inc., Hercules, CA, USA) following the manufacturer’s instructions. The mitochondrial stock solution was maintained on ice during the oxygen consumption experiment.
The mitochondrial oxygen consumption was measured using a phosphorescent oxygen-sensitive probe, MitoXpress-Xtra (Agilent Technologies, Santa Clara, CA, USA), as described previously ([16], [36]). Succinate was used as a respiratory substrate in this assay. […] A microplate reader, PHERAstar Plus (BMG Labtech GmbH, Ortenberg, Germany), was used to read. The time-resolved fluorescence protocol was set to read the plate at 1.5-min intervals for 60 min at an excitation wavelength of 337 nm, an emission wavelength of 665 nm, a delay time of 40 μs, and a gate time of 100 μs at 30°C.
[…]. […] For quantitative assessment, OCR was determined from the slope of the initial 7.5 min. OCR is expressed as micromolar of O2 per minute per milligram of protein.
The drug concentration was expressed as micromoles per milligram of protein. […]

[10] = biological target: respiratory chain complex I (Candida albicans, UniProt Q9B8D6); assay: Respiratory chain enzymatic activity, complex I (rotenone-sensitive), C. albicans; type: biochemical; conditions: read-out: IC50 ± SD, Complex I

## N=C(N)c1ccc(OCCCC2CCN(CCCOc3ccc(C(=N)N)cc3)CC2)cc1 [T-2307]
[1]
  effect on oxygen consumption in whole yeast cells: dose-dependent inhibition of respiration
[2]
  IC50: 271 ± 37 µM
[3]; bovine heart mitochondria, read-out: IC50 ± SD, Complex I
  IC50: > 3000 µM
[3]; bovine, read-out: remaining enzymatic activity of complex I
  remaining activity at 3000 µM: 68%
[4]
  concentration that significantly decreased intracellular ATP levels: ≥ 0.01 µM
  reduction in intracellular ATP level: ~80%
  reduction in intracellular ATP levels: > 50%
[5]
  concentration in cells relative to extracellular medium: > 3,000 fold
[6]
  IC50: 149 ± 23 µM
[7]
  effect on the MMP and on respiration in rat liver mitochondria: little effect
[8]
  MIC reported previously: 4 nM (≈ 1.75 ng/mL)
[9]
  effect on mitochondrial oxygen consumption rate (OCR): dose-dependent decrease
[10]
  IC50: 344 ± 32 µM
